Measured values as given in patent publication US20020002144A1, “Methods and compositions for bisubstrate inhibitors of acetyltransferases” (The Government of the United States of America, Department …, priority 1999, published 2002).

Experiments:
rat pinealocytes [1] = assay: Melatonin production by norepinephrine-treated pinealocytes (radioimmunoassay of medium); assay type: cell-based; settings: for Melatonin production: Experiment 1, 18-24 hours; for Melatonin (18-23 hr): Experiment 2
Method: (§1) Pineal cell preparation and treatment: Pinealocytes were prepared from rat pineal glands by trypsinization as previously described (10). The cells were suspended in Dulbecco's modified Eagle medium (DMEM) containing 10% fetal calf serum and maintained (37° C.) for 18 h in a gas mixture of 95% air and 5% CO2. During this 18 hour period, some cells were treated, as indicated in Table 2 experiment 2, in aliquots of 50,000 cells/300 μl and washed prior to addition of fresh medium and further treatment. In some cases, as in Table 3, experiment 1, cells were not aliquoted until after 18 hours of control incubation and in these cases, aliquots of cells (50,000 cells/300 μl) were prepared and treated with drugs. Drugs were prepared in 100×concentrated solutions in water or dimethyl sulfoxide. The duration of the drug treatment was 5 h.
At the end of treatment period, cells were collected by centrifugation (2 min, 10,000 g) and the medium was removed and stored. Cell pellets were frozen immediately in dry ice and stored at −80° C. until determination of AANAT activity. The supernatant collected was used for determination of melatonin.
Melatonin analysis. Melatonin in the medium was determined by a radioimmunoassay as described previously (11,12). Briefly, melatonin was extracted from 300 μl of medium by vortexing with 1 ml of methylene chloride. After centrifugation, 700 μl of the organic phase was collected and evaporated to dryness. The residue was reconstituted in 500 μl of assay buffer (0.01M phosphate buffer, pH 7.5, containing 0.1% gelatin).
An ultraspecific melatonin antiserum from CIDtech Research Inc. (Mississauga, Ontario Canada) was used for the melatonin radioimmunoassay. Aliquots of extracted melatonin samples were diluted to 500 μl with assay buffer. 100 μl of melatonin antiserum and 50 μl of [^3H]melatonin (˜2000 cpm, at 45.5 Ci/mmol) were then added. After mixing, the tubes were incubated at 4° C. overnight. To separate the bound from the free [^3H] melatonin, 650 μl of saturated ammonium sulphate were added and the samples were incubated at 4° C. for 1 hr. The bound [^3H]melatonin was collected in a protein pellet by centrifugation (4,000 g×30 min) and re-dissolved in 550 μl of deionized water. 500 μl was then used for scintillation counting. Both inter- and intra-assay variability were less than 10%.
N-Bromoacetyltryptamine treatment of rat pinealocytes inhibits melatonin production. Experiments were conducted to determine if N-bromoacetyltryptamine could inhibit production of melatonin. This was done using rat pinealocytes in which melatonin production was elevated by treatment with norepinephrine, which acts by elevating the activity of AANAT.

AANAT [2] = molecular target: T1, AANAT (Rattus norvegicus, UniProt Q64666); assay: AANAT activity in treated pinealocytes; assay type: cell-based; settings: Experiment 2
T1 construct: Pinealocytes were prepared from rat pineal glands by trypsinization; endogenous in cells; host or cells: primary pinealocytes from male Sprague-Dawley rats
T1 sequence (Q64666 whole entry): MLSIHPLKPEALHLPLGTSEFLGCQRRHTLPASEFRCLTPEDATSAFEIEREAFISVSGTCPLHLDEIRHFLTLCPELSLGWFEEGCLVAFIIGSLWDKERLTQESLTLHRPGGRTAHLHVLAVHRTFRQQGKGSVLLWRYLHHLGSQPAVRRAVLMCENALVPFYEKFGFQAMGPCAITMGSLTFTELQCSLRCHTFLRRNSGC
Method: AANAT assay: The specific activity of the AANAT preparation was determined from measurement of the activity of the enzyme and amount of protein in a preparation. Activity was assayed by incubating the enzyme with ^3H-acetyl CoA (0.5 mM, 4 μCi/μmole) and tryptamine hydrochloride (1 mM), bovine serum albumin (0.5 mg/ml) and the enzyme in total volume of 100 μl of sodium phosphate (0.1M, pH 6.8) (6,7). The incubation was terminated by extracting the product ^3H-acetyltryptamine with chloroform (1 ml). The chloroform phase was washed sequentially with 200 μl of the sodium phosphate buffer and twice with 200 μl of NaOH (1N). The radioactivity in 400 μl of the chloroform phase was determined following evaporation of chloroform under vacuum. Protein was measured by optical density at 280 nm and by dye binding using the Brandford procedure. Pineal cell preparation and treatment: Pinealocytes were prepared from rat pineal glands by trypsinization as previously described (10). The cells were suspended in Dulbecco's modified Eagle medium (DMEM) containing 10% fetal calf serum and maintained (37° C.) for 18 h in a gas mixture of 95% air and 5% CO2. During this 18 hour period, some cells were treated, as indicated in Table 2 experiment 2, in aliquots of 50,000 cells/300 μl and washed prior to addition of fresh medium and further treatment. In some cases, as in Table 3, experiment 1, cells were not aliquoted until after 18 hours of control incubation and in these cases, aliquots of cells (50,000 cells/300 μl) were prepared and treated with drugs. Drugs were prepared in 100×concentrated solutions in water or dimethyl sulfoxide. The duration of the drug treatment was 5 h. At the end of treatment period, cells were collected by centrifugation (2 min, 10,000 g) and the medium was removed and stored. Cell pellets were frozen immediately in dry ice and stored at −80° C. until determination of AANAT activity. The supernatant collected was used for determination of melatonin.

[3] = system: arylamine N-acetyltransferase (E.C. 2.3.1.5); settings: adverse reactions reported to result from acetylation of the drug; cited from earlier work
AANAT [4] = molecular target: T2, AANAT (Ovis aries, UniProt Q29495); assay: AANAT assay with aqueous extracts of AANAT/CoA/N-bromoacetyltryptamine pre-incubations; assay type: biochemical; settings: 20 μl extract in 100 μl AANAT assay
T2 construct: made in house
T2 sequence (Q29495 whole entry): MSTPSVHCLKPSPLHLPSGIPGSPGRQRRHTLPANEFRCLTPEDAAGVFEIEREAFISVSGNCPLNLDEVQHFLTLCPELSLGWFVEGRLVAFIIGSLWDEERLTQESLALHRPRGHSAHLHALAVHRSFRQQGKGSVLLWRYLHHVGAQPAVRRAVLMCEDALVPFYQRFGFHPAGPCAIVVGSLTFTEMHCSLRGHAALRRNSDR
Method: AANAT assay: The specific activity of the AANAT preparation was determined from measurement of the activity of the enzyme and amount of protein in a preparation. Activity was assayed by incubating the enzyme with ^3H-acetyl CoA (0.5 mM, 4 μCi/μmole) and tryptamine hydrochloride (1 mM), bovine serum albumin (0.5 mg/ml) and the enzyme in total volume of 100 μl of sodium phosphate (0.1M, pH 6.8) (6,7). The incubation was terminated by extracting the product ^3H-acetyltryptamine with chloroform (1 ml). The chloroform phase was washed sequentially with 200 μl of the sodium phosphate buffer and twice with 200 μl of NaOH (1N). The radioactivity in 400 μl of the chloroform phase was determined following evaporation of chloroform under vacuum. Protein was measured by optical density at 280 nm and by dye binding using the Brandford procedure.
Incubations to study formation of CoA-S-N-acetyltryptamine.—Bromoacetyltryptamine (20 μM) was incubated (37° C., 30 min) with coenzyme A (20 μM), bovine serum albumin (0.5 mg/ml) and the enzyme in a total volume of 100 μl of Tris HCl (50 mM, pH 7.4) and the incubation was terminated by adding chloroform (1 ml) and vortexing. The aqueous phase was then removed. Samples of the aqueous phase from each chloroform extraction were analyzed by mass spectroscopy and for inhibitory activity in an AANAT assay.
This conclusion was supported by the biochemical evidence from experiments in which the aqueous extracts analyzed above were incubated with a fresh preparation of AANAT in an AANAT assay. Inhibitory activity of the extract was determined.

rat pinealocytes [5] = assay: Cytotoxicity to pinealocytes (response to norepinephrine after wash out); assay type: cell-based; settings: 18 hour treatment with 0.5 μM, medium changed, then norepinephrine
Method: as §1
The effect of an 18 hour treatment with 0.5 μM N-bromoacetyltryptamine was examined. Following the 18 hour treatment, the medium was changed and fresh medium was added. Following this treatment, cells responded to norepinephrine treatment with an increase in melatonin production and AANAT activity.

[6] = Treatment I DMSO (0-18 hr), Treatment II NE 10 μM (18-23 hr)
[7] = Treatment I BAT (0.5 μM) (0-18 hr), wash out, Treatment II NE (10 μM) (18-23 hr)
[8] = Treatment I DMSO (0-18 hr), Treatment II NE 10 μM + BAT (0.5 μM) (18-23 hr)

## NC[C@H](O)c1ccc(O)c(O)c1 [Norepinephrine, reference compound]
Rat pinealocytes [1]; Norepinephrine (10 μM) alone
  Melatonin production: 12.43 ± 2.00 pmol/100,000 cells
Rat pinealocytes [1]; [6]
  Melatonin (18-23 hr): 10.44 ± 1.07 pmole/10^5 cells
AANAT [2]; [6]
  AANAT (23 hr): 0.89 ± 0.10 μmol/h/105 cells

## Nc1ccc(S(=O)(=O)c2ccc(N)cc2)cc1 [Dapsone]
[3]
  Adverse Drug Reaction Reported: Hematological

## CCC1(c2ccc(N)cc2)CCC(=O)NC1=O (centres unmarked) [Aminoglutethamide]
[3]
  Adverse Drug Reaction Reported: Adrenal insufficiency

## CCN(CC)CCNC(=O)c1ccc(N)cc1 [Procainamide]
[3]
  Adverse Drug Reaction Reported: Lupus, uncontrolled arrhythmias

## O=C(CBr)NCCc1c[nH]c2ccccc12 [N-Bromoacetyltryptamine]
AANAT [4]; Complete pre-assay reaction (AANAT + CoA 20 μM + N-bromoacetyltryptamine 20 μM, 37° C., 30 min), read-out: AANAT Activity (% of control)
  remaining activity at 20 µM: 38%
AANAT [4]; pre-assay reaction Minus CoA
  AANAT Activity (% of control): 107%
AANAT [4]; pre-assay reaction Zero time (not incubated)
  AANAT Activity (% of control): 110%
AANAT [4]; pre-assay reaction with Boiled enzyme
  AANAT Activity (% of control): 104%
Rat pinealocytes [1]; 5 hour treatment with 0.1, 0.5 or 1 μM, norepinephrine-treated rat pinealocytes
  production of melatonin: markedly reduced
Rat pinealocytes [1]; N-Bromoacetyltryptamine (1 μM) alone
  Melatonin production: 0.65 ± 0.05 pmol/100,000 cells
Rat pinealocytes [1]; Norepinephrine (10 μM) + N-Bromoacetyltryptamine (0.1 μM)
  Melatonin production: 4.55 ± 0.04 pmol/100,000 cells
Rat pinealocytes [1]; Norepinephrine (10 μM) + N-Bromoacetyltryptamine (1 μM)
  Melatonin production: 0.95 ± 0.25 pmol/100,000 cells
Rat pinealocytes [1]; Treatment I BAT (0.5 μM) (0-18 hr), wash out, Treatment II Control (18-23 hr)
  Melatonin (18-23 hr): 1.78 ± 0.14 pmole/10^5 cells
Rat pinealocytes [1]; [7]
  Melatonin (18-23 hr): 12.22 ± 2.90 pmole/10^5 cells
Rat pinealocytes [1]; [8]
  Melatonin (18-23 hr): 1.88 ± 0.82 pmole/10^5 cells
AANAT [2]; [7]
  AANAT (23 hr): 0.86 ± 0.06 μmol/h/105 cells
AANAT [2]; [8]
  AANAT (23 hr): 0.48 ± 0.05 μmol/h/105 cells
Rat pinealocytes [5]
  cytotoxicity: not cytotoxic

## NNC(=O)c1ccncc1 [Isoniazid]
[3]
  Adverse Drug Reaction Reported: Peripheral neuropathy, liver

## NNc1nncc2ccccc12 [Hydralazine]
[3]
  Adverse Drug Reaction Reported: Lupus, uncontrolled hypertension

## Cc1cc(C)nc(NS(=O)(=O)c2ccc(N)cc2)n1 [Sulfamethazine]
[3]
  Adverse Drug Reaction Reported: Hematological/Gastrointestinal
